Laboratory results: ChEMBL document CHEMBL6103654, “Design, Biological Characterization, and Discovery of Capromorelin Derivatives as Oral Growth Hormone Secretagogue Receptor Type 1a Agonist for the Treatment of Growth Hormone Deficiency” (J Med Chem, 2025)
Calls of active or inactive are those of the source. No cut-off for these calls is given here.

Experiments:
[1] = Metabolic stability in dog liver microsome assessed as half life at 1 uM measured upto 60 mins in presence of NADPH by LC-MS/MS analysis; assay type: ADME, Canis lupus familiaris; details: liver microsomes
[2] = Agonist activity at monkey GHSR expressed in CHO cells incubated for 60 min by FLIPR assay; assay type: cell-based; details: Macaca mulatta, 1 h
CHO = assay: Agonist activity at dog GHSR expressed in CHO cells at maximum concentration incubated for 60 min by FLIPR assay relative to control; assay type: cell-based; details: Canis lupus familiaris, filed as agonist
[3] = Elimination half life in male Sprague-Dawley rat at 1 mg/kg, iv administered as single dose measured after 4 hrs; assay type: ADME, organism-based; details: in vivo, read-out: beta t1/2 (converted)
[4] = Clearance in male Sprague-Dawley rat plasma at 1 mg/kg, iv administered as single dose measured after 4 hrs; assay type: ADME, organism-based
[5] = Volume of distribution in male Sprague-Dawley rat at 1 mg/kg, iv administered as single dose measured after 4 hrs; assay type: ADME, organism-based; details: in vivo
Rattus norvegicus [6] = assay: Induction of growth hormone level in Juvenile Sprague-Dawley rat blood at 0.1 mg/kg, po administered as single dose measured after 10 mins by ELISA method (reference value: 23.2+/-5.6 ng/mL); assay type: functional
Rattus norvegicus [7] = assay: Induction of growth hormone level in Juvenile Sprague-Dawley rat blood at 0.1 mg/kg, po administered as single dose measured after 40 mins by ELISA method (reference value: 40.1+/-11.0 ng/mL); assay type: functional
Rattus norvegicus [8] = assay: Induction of growth hormone level in Juvenile Sprague-Dawley rat blood at 0.1 mg/kg, po administered as single dose measured after 1 hr by ELISA method (reference value: 45.2+/-12.5 ng/mL); assay type: functional
Rattus norvegicus [9] = assay: Induction of growth hormone level in Juvenile Sprague-Dawley rat blood at 0.1 mg/kg, po administered as single dose measured after 4 hrs by ELISA method (reference value: 32.5+/-4.5 ng/mL); assay type: functional
Rattus norvegicus [10] = assay: Induction of growth hormone level in Juvenile Sprague-Dawley rat blood at 0.2 mg/kg, po administered as single dose measured after 20 mins by ELISA method (reference value: 29.1+/-8.6 ng/mL); assay type: functional
Rattus norvegicus [11] = assay: Induction of growth hormone level in Juvenile Sprague-Dawley rat blood at 0.2 mg/kg, po administered as single dose measured after 2 hrs by ELISA method (reference value: 26.5+/-7.3 ng/mL); assay type: functional
Rattus norvegicus [12] = assay: Induction of growth hormone level in Juvenile Sprague-Dawley rat blood at 0.5 mg/kg, po administered as single dose measured immediately by ELISA method (reference value: 28.5+/-8.7 ng/mL); assay type: functional
Rattus norvegicus [13] = assay: Induction of growth hormone level in Juvenile Sprague-Dawley rat blood at 0.5 mg/kg, po administered as single dose measured after 1 hr by ELISA method (reference value: 45.2+/-12.5 ng/mL); assay type: functional
Rattus norvegicus [14] = assay: Induction of growth hormone level in Juvenile Sprague-Dawley rat blood by measuring AUC(0 to 40 mins) at 0.5 mg/kg, po administered as single dose by ELISA method (reference value: 20.2+/-4.3 ng/mL); assay type: functional, organism-based
Rattus norvegicus [15] = assay: Induction of growth hormone level in adult Sprague-Dawley rat blood at 0.1 mg/kg, po administered as single dose measured after 40 mins by ELISA method (reference value: 14.4+/-6.9 ng/mL); assay type: functional
Rattus norvegicus [16] = assay: Induction of growth hormone level in adult Sprague-Dawley rat blood by measuring AUC(0 to 40 mins) at 0.2 mg/kg, po administered as single dose by ELISA method (reference value: 7.0+/-1.7 ng/mL); assay type: functional, organism-based
Rattus norvegicus [17] = assay: Induction of growth hormone level in adult Sprague-Dawley rat blood at 0.5 mg/kg, po administered as single dose measured immediately by ELISA method (reference value: 12.6+/-4.4 ng/mL); assay type: functional
Rattus norvegicus [18] = assay: Induction of growth hormone level in 4 week-old female Sprague-Dawley rat assessed as increase in body length at 2.5 mg/kg, po measured after 10 days; assay type: functional, organism-based; details: time 10.0 day
Rattus norvegicus [19] = assay: Induction of growth hormone level in 4 week-old female Sprague-Dawley rat assessed as increase in body weight at 2.5 mg/kg, po measured after 10 days; assay type: functional, organism-based; details: time 10.0 day
Rattus norvegicus [20] = species: Rattus norvegicus; assay: Induction of growth hormone level in 4 week-old Sprague-Dawley rat assessed as increase in body length measured after 10 days; assay type: functional, organism-based; details: time 10.0 day
[21] = Half life in male monkey at 2 mg/kg, po administered as single dose measured after 4 hrs; assay type: ADME, organism-based, Macaca mulatta; details: rhesus monkey, in vivo
[22] = Volume of distribution in male dog at 0.5 mg/kg, iv administered as single dose measured after 4 hrs; assay type: ADME, organism-based, Canis lupus familiaris; details: in vivo
[23] = Cmax in male dog at 2 mg/kg, po administered as single dose measured after 4 hrs; assay type: ADME, organism-based, Canis lupus familiaris; details: in vivo
[24] = Oral bioavailability in male mouse at 2 mg/kg administered as single dose measured after 4 hrs; assay type: ADME, organism-based; details: in vivo
[25] = Metabolic stability in mouse liver microsome assessed as half life at 1 uM measured upto 60 mins in presence of NADPH by LC-MS/MS analysis; assay type: ADME; details: liver microsomes
[26] = Metabolic stability in mouse liver microsome assessed as intrinsic clearance at 1 uM measured upto 60 mins in presence of NADPH by LC-MS/MS analysis; assay type: ADME; details: liver microsomes, read-out: CLH
Cytochrome P450 1A2 = molecular target: T1, Cytochrome P450 1A2 (Homo sapiens, UniProt P05177); assay: Inhibition of CYP1A2 in human liver microsome incubated for 5 min in presence of NADPH by UPLC-MS/MS analysis; assay type: ADME, microsomes
T1 sequence (P05177 whole entry): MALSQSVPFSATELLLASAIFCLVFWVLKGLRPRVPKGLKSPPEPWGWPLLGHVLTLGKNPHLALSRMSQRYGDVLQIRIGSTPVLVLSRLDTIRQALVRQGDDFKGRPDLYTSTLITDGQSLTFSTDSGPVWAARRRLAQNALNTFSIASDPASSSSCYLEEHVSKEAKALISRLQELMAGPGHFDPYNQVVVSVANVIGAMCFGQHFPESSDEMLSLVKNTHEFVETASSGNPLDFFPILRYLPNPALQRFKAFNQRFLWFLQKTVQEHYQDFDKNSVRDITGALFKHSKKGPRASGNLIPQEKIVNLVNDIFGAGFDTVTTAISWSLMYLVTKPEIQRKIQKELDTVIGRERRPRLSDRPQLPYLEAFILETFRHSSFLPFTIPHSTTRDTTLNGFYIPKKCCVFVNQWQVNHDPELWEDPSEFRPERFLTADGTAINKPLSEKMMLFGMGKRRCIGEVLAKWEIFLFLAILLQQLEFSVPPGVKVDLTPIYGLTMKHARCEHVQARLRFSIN

Rattus norvegicus [27] = assay: In vivo agonist activity at GSHR in Sprague-Dawley rat assessed as increase in food consumption at 10 to 100 mg/kg, po administered once daily for 14 days; assay type: functional, organism-based; details: dose 10-100 mg/kg, time 14.0 day

half-life at 1 µM [1]: 10.3 min
EC50 [2]: 0.046 nM
half-life [3]: 64.2 min
clearance [4]: 28.9 mL/min/kg
Vd [5]: 2.65 L/kg
half-life [21]: 61.2 min
Vd [22]: 2.88 L/kg
Cmax [23]: 200 ng/mL
bioavailability [24]: 33.9%
half-life at 1 µM [25]: 4.2 min
microsomal CLint at 1 µM [26]: 330 µL/min/mg
IC50 (Cytochrome P450 1A2): > 30000 nM
Structure (SMILES): CC(C)(N)C(=O)N[C@H](COCc1ccccc1)C(=O)N1CCC2=NN(C3CC3)C(=O)[C@]2(Cc2ccccc2)C1
Activity (CHO): 124%
Activity (Rattus norvegicus [6]): 168.5 ng/mL
Activity (Rattus norvegicus [7]): 74.5 ng/mL
Activity (Rattus norvegicus [8]): 37.8 ng/mL
Activity (Rattus norvegicus [9]): 41.4 ng/mL
Activity (Rattus norvegicus [10]): 217.8 ng/mL
Activity (Rattus norvegicus [11]): 32.3 ng/mL
Activity (Rattus norvegicus [12]): 42.8 ng/mL
Activity (Rattus norvegicus [13]): 27.2 ng/mL
AUC (Rattus norvegicus [14]): 110 ng·h/mL
Activity (Rattus norvegicus [15]): 27.6 ng/mL
AUC (Rattus norvegicus [16]): 62.6 ng·h/mL
Activity (Rattus norvegicus [17]): 14 ng/mL
Activity (Rattus norvegicus [18]): Active
Activity (Rattus norvegicus [19]): Active
Activity (Rattus norvegicus [20]): Dose-dependent-effect
Activity (Rattus norvegicus [27]): Active
